{"source": "patent US12729377B2", "about": "“RNAi agents and compositions for inhibiting expression of angiopoietin-like 3 (ANGPTL3), and methods of use” (Arrowhead Pharmaceuticals, Inc., priority 2017, dated 2026)", "key": {"[1]": {"system": "ANGPTL3 gene", "experiment": "Example 11: dose response, serum LDL in mice", "format": "in vivo, C57bl/6 mice", "procedure": "(§1) To assess the dose response of ANGPTL3 RNAi agent AD05488, six- to eight-week-old female C57bl/6 mice were used. Pre-dose serum samples were taken at day −1 after a four hour fast. At day 1, each mouse was given a single subcutaneous administration of 200 μl containing the respective mg/kg dose of an ANGPTL3 RNAi agent in D5W (dextrose in 5% water), or control (D5W) with no RNAi agent, according to the dosing groups recited in Table 53:\n(§2) The RNAi agent tested (AD05488) included a modified sequence and an N-acetyl-galactosamine-containing targeting ligand conjugated to the 5′ terminal end of the sense strand. (See Tables 3, 4, and 5 for modified sequences and targeting ligand structures). The injections were performed between the skin and muscle (i.e. subcutaneous injections) into the loose skin over the neck and shoulder area. Four (4) mice in each group were tested (n=4). Serum was collected on days 8, 15, 22, and 29. Mice were fasted for four hours prior to each collection. ANGPTL3 protein levels in serum were measured by ELISA assay (R&D Systems), according to the manufacturer's recommendations. Triglycerides, total cholesterol, high-density lipoprotein (HDL), and low-density lipoprotein (LDL) in serum were measured on a Cobas® Integra 400 (Roche Diagnostics), according to the manufacturer's recommendations.\n(§3) The ANGPTL3 protein levels, triglyceride levels, total cholesterol levels, HDL levels, and LDL levels for each animal were normalized. For normalization, the level of ANGPTL3 protein, triglyceride, HDL, and total cholesterol, respectively, for each animal at a time point, was divided by the pre-treatment level of expression in that animal (in this case at day −1) to determine the ratio of expression “normalized to pre-treatment.” Expression at a specific time point was then normalized to the D5W control group by dividing the “normalized to pre-treatment” ratio for an individual animal by the mean “normalized to pretreatment” ratio of all mice in the D5W control group."}, "[2]": {"system": "ANGPTL3 gene", "experiment": "Example 11: dose response, serum triglycerides in mice", "format": "in vivo, C57bl/6 mice", "procedure": "as §1, §2, §3"}, "[3]": {"system": "ANGPTL3 protein", "experiment": "Example 9: serum ANGPTL3 protein by ELISA in cynomolgus monkeys", "format": "in vivo, cynomolgus macaque (Macaca fascicularis)", "conditions": "for Average ANGPTL3 Protein Normalized to Pre-Treatment: 2.0 mg/kg single SC injection day 1, cynos, n=3", "procedure": "Additional ANGPTL3 RNAi agents were evaluated in cynomolgus monkeys. On day 1, cynomolgus macaque (Macaca fascicularis) primates (also referred to herein as “cynos”) were administered a single subcutaneous injection of 0.3 mL/kg (approximately 2-3 mL volume, depending on animal mass) containing 2.0 mg/kg of an ANGPTL3 RNAi agent, which included either AD05488, AD05743, AD05775, or AD05841, each formulated in saline. […] ANGPTL3 RNAi agents AD05488, AD05743, and AD05775 included nucleotide sequences designed to target position 304 of the ANGPTL3 gene. ANGPTL3 RNAi agent AD05841 included nucleotide sequences designed to target position 1035 of the ANGPTL3 gene.\nThree (3) cynos in each group were tested (n=3). Blood samples were drawn and serum samples were analyzed on days −14 (predose), −7 (predose), 1 (pre-dose), 8, 15, 22, 29, and 35. Cynos were fasted overnight prior to each collection. ANGPTL3 protein levels in serum were measured by ELISA assay (R&D Systems), according to the manufacturer's recommendations. Triglycerides, total cholesterol, high-density lipoprotein (HDL), and low-density lipoprotein (LDL) in serum were measured on a Cobas® Integra 400 (Roche Diagnostics), according to the manufacturer's recommendations.\nThe ANGPTL3 protein levels, triglyceride levels, total cholesterol levels, HDL levels, and LDL levels for each animal were normalized. For normalization, the level of ANGPTL3 protein, triglyceride, HDL, and total cholesterol, respectively, for each animal at a time point, was divided by the average pre-treatment level of expression in that animal (in this case at days −14, −7, and 1) to determine the ratio of expression “normalized to pre-treatment.”"}, "[4]": {"conditions": "0.05 mg/kg single sc day 1, Day 8"}, "[5]": {"conditions": "0.05 mg/kg single sc day 1, Day 15"}, "[6]": {"conditions": "0.05 mg/kg single sc day 1, Day 22"}, "[7]": {"conditions": "0.05 mg/kg single sc day 1, Day 29"}, "[8]": {"conditions": "0.1 mg/kg single sc day 1, Day 8"}, "[9]": {"conditions": "0.1 mg/kg single sc day 1, Day 15"}, "[10]": {"conditions": "0.1 mg/kg single sc day 1, Day 22"}, "[11]": {"conditions": "0.1 mg/kg single sc day 1, Day 29"}, "[12]": {"conditions": "0.5 mg/kg single sc day 1, Day 8"}, "[13]": {"conditions": "0.5 mg/kg single sc day 1, Day 15"}, "[14]": {"conditions": "0.5 mg/kg single sc day 1, Day 22"}, "[15]": {"conditions": "0.5 mg/kg single sc day 1, Day 29"}, "[16]": {"conditions": "1.0 mg/kg single sc day 1, Day 8"}, "[17]": {"conditions": "1.0 mg/kg single sc day 1, Day 15"}, "[18]": {"conditions": "1.0 mg/kg single sc day 1, Day 22"}, "[19]": {"conditions": "1.0 mg/kg single sc day 1, Day 29"}, "[20]": {"conditions": "2.5 mg/kg single sc day 1, Day 8"}, "[21]": {"conditions": "2.5 mg/kg single sc day 1, Day 15"}, "[22]": {"conditions": "2.5 mg/kg single sc day 1, Day 22"}, "[23]": {"conditions": "2.5 mg/kg single sc day 1, Day 29"}, "[24]": {"conditions": "5.0 mg/kg single sc day 1, Day 8"}, "[25]": {"conditions": "5.0 mg/kg single sc day 1, Day 15"}, "[26]": {"conditions": "5.0 mg/kg single sc day 1, Day 22"}, "[27]": {"conditions": "5.0 mg/kg single sc day 1, Day 29"}}, "note": "In the oligonucleotide strings, read from the 5' end, every base follows the letter of its sugar. An asterisk marks phosphorothioate; unmarked linkages are phosphodiester. Other units and linkages are bracketed, terminal groups are in braces. A string of capitals states the bases alone. {NAG37} = tridentate N-acetyl-galactosamine targeting ligand, structure (NAG37)s; [invAb] = inverted abasic unit; m = 2'-O-methyl; f = 2'-fluoro", "data": [{"substance": "AD05488: RNAi agent duplex: antisense AM07235-AS, sense AM07234-SS (antisense mU*fA*mC*fUmGfAmUfCmAfAmAfUmAfUmGfUmUfGmAfG*mC; sense {NAG37}*[invAb]*mGmCmUmCmAmAmCmAfUfAfUmUmUmGmAmUmCmAmGmUmA*[invAb])", "values": [{"measurement": "Avg LDL Normalized to Pre-Treatment and Control", "setting": "[1]; [4]", "value": 0.798}, {"measurement": "Avg LDL Normalized to Pre-Treatment and Control", "setting": "[1]; [5]", "value": 1.147}, {"measurement": "Avg LDL Normalized to Pre-Treatment and Control", "setting": "[1]; [6]", "value": 0.772}, {"measurement": "Avg LDL Normalized to Pre-Treatment and Control", "setting": "[1]; [7]", "value": 0.822}, {"measurement": "Avg LDL Normalized to Pre-Treatment and Control", "setting": "[1]; [8]", "value": 0.878}, {"measurement": "Avg LDL Normalized to Pre-Treatment and Control", "setting": "[1]; [9]", "value": 1.153}, {"measurement": "Avg LDL Normalized to Pre-Treatment and Control", "setting": "[1]; [10]", "value": 0.732}, {"measurement": "Avg LDL Normalized to Pre-Treatment and Control", "setting": "[1]; [11]", "value": 0.845}, {"measurement": "Avg LDL Normalized to Pre-Treatment and Control", "setting": "[1]; [12]", "value": 0.816}, {"measurement": "Avg LDL Normalized to Pre-Treatment and Control", "setting": "[1]; [13]", "value": 1.137}, {"measurement": "Avg LDL Normalized to Pre-Treatment and Control", "setting": "[1]; [14]", "value": 0.866}, {"measurement": "Avg LDL Normalized to Pre-Treatment and Control", "setting": "[1]; [15]", "value": 0.896}, {"measurement": "Avg LDL Normalized to Pre-Treatment and Control", "setting": "[1]; [16]", "value": 0.760}, {"measurement": "Avg LDL Normalized to Pre-Treatment and Control", "setting": "[1]; [17]", "value": 1.145}, {"measurement": "Avg LDL Normalized to Pre-Treatment and Control", "setting": "[1]; [18]", "value": 0.993}, {"measurement": "Avg LDL Normalized to Pre-Treatment and Control", "setting": "[1]; [19]", "value": 1.123}, {"measurement": "Avg LDL Normalized to Pre-Treatment and Control", "setting": "[1]; [20]", "value": 0.805}, {"measurement": "Avg LDL Normalized to Pre-Treatment and Control", "setting": "[1]; [21]", "value": 1.185}, {"measurement": "Avg LDL Normalized to Pre-Treatment and Control", "setting": "[1]; [22]", "value": 0.915}, {"measurement": "Avg LDL Normalized to Pre-Treatment and Control", "setting": "[1]; [23]", "value": 0.814}, {"measurement": "Avg LDL Normalized to Pre-Treatment and Control", "setting": "[1]; [24]", "value": 0.802}, {"measurement": "Avg LDL Normalized to Pre-Treatment and Control", "setting": "[1]; [25]", "value": 1.170}, {"measurement": "Avg LDL Normalized to Pre-Treatment and Control", "setting": "[1]; [26]", "value": 0.909}, {"measurement": "Avg LDL Normalized to Pre-Treatment and Control", "setting": "[1]; [27]", "value": 0.932}, {"measurement": "Avg TG (Triglycerides) Normalized to Pre-Treatment and Control", "setting": "[2]; [4]", "value": 1.296}, {"measurement": "Avg TG (Triglycerides) Normalized to Pre-Treatment and Control", "setting": "[2]; [5]", "value": 1.274}, {"measurement": "Avg TG (Triglycerides) Normalized to Pre-Treatment and Control", "setting": "[2]; [6]", "value": 1.202}, {"measurement": "Avg TG (Triglycerides) Normalized to Pre-Treatment and Control", "setting": "[2]; [7]", "value": 1.999}, {"measurement": "Avg TG (Triglycerides) Normalized to Pre-Treatment and Control", "setting": "[2]; [8]", "value": 1.116}, {"measurement": "Avg TG (Triglycerides) Normalized to Pre-Treatment and Control", "setting": "[2]; [9]", "value": 1.141}, {"measurement": "Avg TG (Triglycerides) Normalized to Pre-Treatment and Control", "setting": "[2]; [10]", "value": 1.234}, {"measurement": "Avg TG (Triglycerides) Normalized to Pre-Treatment and Control", "setting": "[2]; [11]", "value": 1.798}, {"measurement": "Avg TG (Triglycerides) Normalized to Pre-Treatment and Control", "setting": "[2]; [12]", "value": 1.028}, {"measurement": "Avg TG (Triglycerides) Normalized to Pre-Treatment and Control", "setting": "[2]; [13]", "value": 1.027}, {"measurement": "Avg TG (Triglycerides) Normalized to Pre-Treatment and Control", "setting": "[2]; [14]", "value": 0.864}, {"measurement": "Avg TG (Triglycerides) Normalized to Pre-Treatment and Control", "setting": "[2]; [15]", "value": 1.855}, {"measurement": "Avg TG (Triglycerides) Normalized to Pre-Treatment and Control", "setting": "[2]; [16]", "value": 0.860}, {"measurement": "Avg TG (Triglycerides) Normalized to Pre-Treatment and Control", "setting": "[2]; [17]", "value": 0.755}, {"measurement": "Avg TG (Triglycerides) Normalized to Pre-Treatment and Control", "setting": "[2]; [18]", "value": 0.720}, {"measurement": "Avg TG (Triglycerides) Normalized to Pre-Treatment and Control", "setting": "[2]; [19]", "value": 1.254}, {"measurement": "Avg TG (Triglycerides) Normalized to Pre-Treatment and Control", "setting": "[2]; [20]", "value": 0.623}, {"measurement": "Avg TG (Triglycerides) Normalized to Pre-Treatment and Control", "setting": "[2]; [21]", "value": 0.556}, {"measurement": "Avg TG (Triglycerides) Normalized to Pre-Treatment and Control", "setting": "[2]; [22]", "value": 0.447}, {"measurement": "Avg TG (Triglycerides) Normalized to Pre-Treatment and Control", "setting": "[2]; [23]", "value": 0.772}, {"measurement": "Avg TG (Triglycerides) Normalized to Pre-Treatment and Control", "setting": "[2]; [24]", "value": 0.923}, {"measurement": "Avg TG (Triglycerides) Normalized to Pre-Treatment and Control", "setting": "[2]; [25]", "value": 0.892}, {"measurement": "Avg TG (Triglycerides) Normalized to Pre-Treatment and Control", "setting": "[2]; [26]", "value": 0.781}, {"measurement": "Avg TG (Triglycerides) Normalized to Pre-Treatment and Control", "setting": "[2]; [27]", "value": 1.128}, {"measurement": "Average ANGPTL3 Protein Normalized to Pre-Treatment", "setting": "[3]; Day 8", "value": 0.232}, {"measurement": "Average ANGPTL3 Protein Normalized to Pre-Treatment", "setting": "[3]; Day 15", "value": 0.240}, {"measurement": "Average ANGPTL3 Protein Normalized to Pre-Treatment", "setting": "[3]; Day 22", "value": 0.239}, {"measurement": "Average ANGPTL3 Protein Normalized to Pre-Treatment", "setting": "[3]; Day 29", "value": 0.258}, {"measurement": "Average ANGPTL3 Protein Normalized to Pre-Treatment", "setting": "[3]; Day 35", "value": 0.332}, {"measurement": "reduction in ANGPTL3 protein compared to pre-treatment", "setting": "[3]; each of the measured time points, single 2.0 mg/kg subcutaneous, cynomolgus monkeys", "value": "reduction"}]}]}
